Measured values reported in PMC3111206, “Phase I study of PD 0332991, a cyclin-dependent kinase inhibitor, administered in 3-week cycles (Schedule 2/1)” (British Journal of Cancer, 2011).
“Also recorded” adds a separate entry of the source.

Experiments:
platelets = assay: Pharmacodynamic Emax modelling of change in platelets vs individual AUC; assay type: in vivo; details: Homo sapiens, Platelet; cycle 1, vs individual AUC, 30 patients; s.e. 16.9; 18.3% CV; read-out: Emax for platelets (change from baseline)
Protocol: (§1) To document the course of changes in absolute neutrophil count (ANC) and platelets over time during the first two cycles of treatment, an exploratory analysis of data available from the weekly safety laboratory tests was carried out. Possible relationships between PD 0332991 exposure and changes in (i) ANC and (ii) platelets were assessed further by fitting a simple model (without baseline) to determine the maximum […] (Emax).

[1] = Safety assessment: adverse events and haematological toxicity graded by NCI CTCAE v3.0; assay type: in vivo, human; details: for Treatment-related Alopecia, All grades / Treatment-related Alopecia, Grade 3 / Treatment-related Anorexia, All grades / Treatment-related Anorexia, Grade 3 / Treatment-related Chills, All grades / Treatment-related Chills, Grade 3 / Treatment-related Constipation, All grades / Treatment-related Constipation, Grade 3 / Treatment-related Cough, All grades / Treatment-related Cough, Grade 3 / Treatment-related Diarrhoea, All grades / Treatment-related Diarrhoea, Grade 3 / Treatment-related Dyspnea, All grades / Treatment-related Dyspnea, Grade 3 / Treatment-related Epistaxis, All grades / Treatment-related Epistaxis, Grade 3 / Treatment-related Fatigue, All grades / Treatment-related Fatigue, Grade 3 / Treatment-related Flatulence, All grades / Treatment-related Flatulence, Grade 3 / Treatment-related Mucosal inflammation, All grades / Treatment-related Mucosal inflammation, Grade 3 / Treatment-related Muscular weakness, All grades / Treatment-related Muscular weakness, Grade 3 / Treatment-related Nausea, All grades / Treatment-related Nausea, Grade 3 / Treatment-related Peripheral oedema, All grades / Treatment-related Peripheral oedema, Grade 3 / Treatment-related Pyrexia, All grades / Treatment-related Pyrexia, Grade 3 / Treatment-related Rash, All grades / Treatment-related Rash, Grade 3 / Treatment-related Vomiting, All grades / Treatment-related Vomiting, Grade 3: all cohorts combined (N=33)
Protocol: Safety was assessed at baseline, at regular intervals throughout the study, and within 1 week following treatment discontinuation by recording AEs, haematological and biochemical parameters, and physical status (including ECOG performance status). Adverse event severity was graded using the National Cancer Institute Common Terminology Criteria for Adverse Events, version 3.0 ([Trotti et al, 2003]). Triplicate electrocardiograms (ECGs) ∼2 min apart were taken at baseline, 3 h post-dose on days 1, 8 and 15 of cycle 1, and on day 15 of subsequent cycles for up to six cycles.

Rb-negative cell lines = test system: Rb-negative cell lines; set-up: method as in Fry et al, 2004; details: ref Fry et al, 2004, cited from earlier work
[2] = test system: absolute neutrophil count (ANC); assay: Pharmacodynamic Emax modelling of change in ANC vs individual AUC; assay type: in vivo; details: Homo sapiens, cycle 1, vs individual AUC, 30 patients, s.e. 11.2, 12.6% CV, read-out: Emax for ANC (change from baseline)
Protocol: as §1

[3] = test system: Rb-positive human xenograft models; set-up: method as in Fry et al, 2004; details: several Rb-positive human xenograft models in vivo; ref Fry et al, 2004; cited from earlier work
[4] = 200 mg QD, cycle 1, 20 patients
[5] = maximum toxicity grade, worsened vs baseline, all cohorts and all cycles (N=33)

In the case of `CC(=O)c1c(C)c2cnc(Nc3ccc(N4CCNCC4)cn3)nc2n(C2CCCC2)c1=O` [PD 0332991], the Emax (platelets) is reported as 92.2%, the “Neutropenia, NCICTCAE Grade 0” value [1, 4] is reported as 11 n and the “Neutropenia, NCICTCAE Grade 1” value [1, 4] is reported as 0 n. The “Neutropenia, NCICTCAE Grade 2” value [1, 4] was 3 n, the “Neutropenia, NCICTCAE Grade 3” value [1, 4] was 6 n and the “Neutropenia, NCICTCAE Grade 4” value [1, 4] was 0 n. The “Patients with treatment interrupted following treatment-related AEs” value ([1]; 200 mg QD, during cycle 1) was “eight”, the “Neutropenia, NCICTCAE Grade 0” value ([1]; 225 mg QD, cycle 1, 6 patients) was 3 n and the “Neutropenia, NCICTCAE Grade 1” value ([1]; 225 mg QD, cycle 1, 6 patients) was 0 n. For the same compound, the “Neutropenia, NCICTCAE Grade 2” value ([1]; 225 mg QD, cycle 1, 6 patients) was 0 n, the “Neutropenia, NCICTCAE Grade 3” value ([1]; 225 mg QD, cycle 1, 6 patients) was 2 n and the “Neutropenia, NCICTCAE Grade 4” value ([1]; 225 mg QD, cycle 1, 6 patients) was 1 n. For the same compound, the “Treatment-related Alopecia, All grades” value ([1]; After cycle 1) was 2 (6) n (%), the “Treatment-related Alopecia, Grade 3” value ([1]; After cycle 1) was 0 n (%) and the “Treatment-related Anorexia, All grades” value ([1]; After cycle 1) was 3 (9) n (%). For the same compound, the “Treatment-related Anorexia, Grade 3” value ([1]; After cycle 1) was 0 n (%), the “Treatment-related Chills, All grades” value ([1]; After cycle 1) was 2 (6) n (%) and the “Treatment-related Chills, Grade 3” value ([1]; After cycle 1) was 0 n (%). The “Treatment-related Constipation, All grades” value ([1]; After cycle 1) was 3 (9) n (%), the “Treatment-related Constipation, Grade 3” value ([1]; After cycle 1) was 0 n (%) and the “Treatment-related Cough, All grades” value ([1]; After cycle 1) was 2 (6) n (%). The “Treatment-related Cough, Grade 3” value ([1]; After cycle 1) was 0 n (%), the “Treatment-related Diarrhoea, All grades” value ([1]; After cycle 1) was 10 (30) n (%) and the “Treatment-related Diarrhoea, Grade 3” value ([1]; After cycle 1) was 0 n (%). For the same compound, the “Treatment-related Dyspnea, All grades” value ([1]; After cycle 1) was 1 (3) n (%), the “Treatment-related Dyspnea, Grade 3” value ([1]; After cycle 1) was 0 n (%) and the “Treatment-related Epistaxis, All grades” value ([1]; After cycle 1) was 4 (12) n (%). For the same compound, the “Treatment-related Epistaxis, Grade 3” value ([1]; After cycle 1) was 0 n (%), the “Treatment-related Fatigue, All grades” value ([1]; After cycle 1) was 10 (30) n (%) and the “Treatment-related Fatigue, Grade 3” value ([1]; After cycle 1) was 1 (3) n (%). The “Treatment-related Flatulence, All grades” value ([1]; After cycle 1) was 3 (9) n (%), the “Treatment-related Flatulence, Grade 3” value ([1]; After cycle 1) was 0 n (%) and the “Treatment-related Mucosal inflammation, All grades” value ([1]; After cycle 1) was 3 (9) n (%). The “Treatment-related Mucosal inflammation, Grade 3” value ([1]; After cycle 1) was 0 n (%), the “Treatment-related Muscular weakness, All grades” value ([1]; After cycle 1) was 2 (6) n (%) and the “Treatment-related Muscular weakness, Grade 3” value ([1]; After cycle 1) was 0 n (%). The “Treatment-related Nausea, All grades” value ([1]; After cycle 1) was 5 (15) n (%), the “Treatment-related Nausea, Grade 3” value ([1]; After cycle 1) was 1 (3) n (%) and the “Treatment-related Peripheral oedema, All grades” value ([1]; After cycle 1) was 2 (6) n (%). For the same compound, the “Treatment-related Peripheral oedema, Grade 3” value ([1]; After cycle 1) was 0 n (%), the “Treatment-related Pyrexia, All grades” value ([1]; After cycle 1) was 2 (6) n (%) and the “Treatment-related Pyrexia, Grade 3” value ([1]; After cycle 1) was 0 n (%). For the same compound, the “Treatment-related Rash, All grades” value ([1]; After cycle 1) was 2 (6) n (%), the “Treatment-related Rash, Grade 3” value ([1]; After cycle 1) was 0 n (%) and the “Treatment-related Vomiting, All grades” value ([1]; After cycle 1) was 2 (6) n (%). The “Treatment-related Vomiting, Grade 3” value ([1]; After cycle 1) was 1 (3) n (%), the “Treatment-related Alopecia, All grades” value ([1]; Cycle 1) was 0 n (%) and the “Treatment-related Alopecia, Grade 3” value ([1]; Cycle 1) was 0 n (%). For the same compound, the “Treatment-related Anorexia, All grades” value ([1]; Cycle 1) was 1 (3) n (%), the “Treatment-related Anorexia, Grade 3” value ([1]; Cycle 1) was 0 n (%) and the “Treatment-related Chills, All grades” value ([1]; Cycle 1) was 0 n (%). For the same compound, the “Treatment-related Chills, Grade 3” value ([1]; Cycle 1) was 0 n (%), the “Treatment-related Constipation, All grades” value ([1]; Cycle 1) was 4 (12) n (%) and the “Treatment-related Constipation, Grade 3” value ([1]; Cycle 1) was 0 n (%). For the same compound, the “Treatment-related Cough, All grades” value ([1]; Cycle 1) was 0 n (%), the “Treatment-related Cough, Grade 3” value ([1]; Cycle 1) was 0 n (%) and the “Treatment-related Diarrhoea, All grades” value ([1]; Cycle 1) was 6 (18) n (%). The “Treatment-related Diarrhoea, Grade 3” value ([1]; Cycle 1) was 0 n (%), the “Treatment-related Dyspnea, All grades” value ([1]; Cycle 1) was 3 (9) n (%) and the “Treatment-related Dyspnea, Grade 3” value ([1]; Cycle 1) was 0 n (%). For the same compound, the “Treatment-related Epistaxis, All grades” value ([1]; Cycle 1) was 0 n (%), the “Treatment-related Epistaxis, Grade 3” value ([1]; Cycle 1) was 0 n (%) and the “Treatment-related Fatigue, All grades” value ([1]; Cycle 1) was 11 (33) n (%). For the same compound, the “Treatment-related Fatigue, Grade 3” value ([1]; Cycle 1) was 0 n (%), the “Treatment-related Flatulence, All grades” value ([1]; Cycle 1) was 0 n (%) and the “Treatment-related Flatulence, Grade 3” value ([1]; Cycle 1) was 0 n (%). The “Treatment-related Mucosal inflammation, All grades” value ([1]; Cycle 1) was 0 n (%), the “Treatment-related Mucosal inflammation, Grade 3” value ([1]; Cycle 1) was 0 n (%) and the “Treatment-related Muscular weakness, All grades” value ([1]; Cycle 1) was 0 n (%). For the same compound, the “Treatment-related Muscular weakness, Grade 3” value ([1]; Cycle 1) was 0 n (%), the “Treatment-related Nausea, All grades” value ([1]; Cycle 1) was 10 (30) n (%) and the “Treatment-related Nausea, Grade 3” value ([1]; Cycle 1) was 0 n (%). The “Treatment-related Peripheral oedema, All grades” value ([1]; Cycle 1) was 3 (9) n (%), the “Treatment-related Peripheral oedema, Grade 3” value ([1]; Cycle 1) was 0 n (%) and the “Treatment-related Pyrexia, All grades” value ([1]; Cycle 1) was 1 (3) n (%). The “Treatment-related Pyrexia, Grade 3” value ([1]; Cycle 1) was 0 n (%), the “Treatment-related Rash, All grades” value ([1]; Cycle 1) was 4 (12) n (%) and the “Treatment-related Rash, Grade 3” value ([1]; Cycle 1) was 0 n (%). The “Treatment-related Vomiting, All grades” value ([1]; Cycle 1) was 2 (6) n (%), the “Treatment-related Vomiting, Grade 3” value ([1]; Cycle 1) was 0 n (%) and the “Patients with treatment interrupted following treatment-related AEs” value ([1]; after cycle 1 (two 200-mg QD, one 225-mg QD)) was “three”. It also gave a Diarrhoea incidence ([1]; after cycle 1, all cohorts) of 30%, an Epistaxis incidence ([1]; after cycle 1, all cohorts) of 12% and a Fatigue incidence ([1]; after cycle 1, all cohorts) of 30%. For the same compound, the Nausea incidence ([1]; after cycle 1, all cohorts) was 15%, the “Grade 1/2 leukopenia and thrombocytopenia” value ([1]; all cohorts) was 58–67 % of patients and the “Grade 3/4 leukopenia and neutropenia” value ([1]; all cohorts) was 20–25 % of patients. For the same compound, the “Patients requiring dose reductions” value ([1]; all cohorts) was “Five”, the “Patients who discontinued treatment permanently because of treatment-related AEs” value ([1]; all cohorts) was “No patient” and the “Treatment-related grade 4 non-haematological AEs” value ([1]; all cohorts) was “no treatment-related grade 4 non-haematological AEs; also recorded: no treatment-related grade 4 toxicity”. For the same compound, the “Grade 3 or 4 leukopenia” value ([1]; all cohorts and cycles) was 21%, the “Grade 3 or 4 lymphopenia” value ([1]; all cohorts and cycles) was 36% and the “Grade 3 or 4 neutropenia” value ([1]; all cohorts and cycles) was 24%. For the same compound, the “Grade 3 or 4 thrombocytopenia” value ([1]; all cohorts and cycles) was 9%, the “Grade 3 or 4 anaemia” value ([1]; all cohorts and cycles, a single patient) was 3% and the “Number of grade 3 non-haematological AEs” value ([1]; all cohorts, all after the first cycle (fatigue, hyperglycaemia, hyponatremia, nausea, vomiting; n=1 each)) was “Five”. The Constipation incidence ([1]; during cycle 1, all cohorts) was 12%, the Diarrhoea incidence ([1]; during cycle 1, all cohorts) was 18% and the Fatigue incidence ([1]; during cycle 1, all cohorts) was 33%. The Nausea incidence ([1]; during cycle 1, all cohorts) was 30%, the Rash incidence ([1]; during cycle 1, all cohorts) was 12% and the “Anaemia, Grade 1/2” value [1, 5] was 21 (64) n (%). For the same compound, the “Anaemia, Grade 3/4” value [1, 5] was 1 (3) n (%), the “Leukopenia, Grade 1/2” value [1, 5] was 22 (67) n (%) and the “Leukopenia, Grade 3/4” value [1, 5] was 7 (21) n (%). For the same compound, the “Lymphopenia, Grade 1/2” value [1, 5] was 8 (24) n (%), the “Lymphopenia, Grade 3/4” value [1, 5] was 12 (36) n (%) and the “Neutropenia, Grade 1/2” value [1, 5] was 14 (42) n (%). The “Neutropenia, Grade 3/4” value [1, 5] was 8 (24) n (%), the “Thrombocytopenia, Grade 1/2” value [1, 5] was 19 (58) n (%) and the “Thrombocytopenia, Grade 3/4” value [1, 5] was 3 (9) n (%). The “Activity against Rb-negative cell lines” value (Rb-negative cell lines; in vitro) was “no activity”, the “Anti-proliferative effect in vitro” value (Rb-negative cell lines; leading to cell-cycle arrest at G1) was “potent anti-proliferative effect” and the Emax [2] was 88.6%. For the same compound, the “Effect on tumour growth” value [3] was “significantly reduces tumour growth and leads to tumour regression”.
